Assay results as given in patent publication US20070027130A1, “Tricyclic 6-alkylidene-penem beta-lactamase inhibitors and beta-lactam antibiotic combination: a broad spectrum antibiotic” (priority 2005, published 2007).
In brackets after ≈: the same amount, converted by molar mass. Like-named read-outs stand apart in the source and are kept apart here.

How the values were obtained:
Test in all cases: MIC microbroth dilution
Format in all cases: cell-based
E. coli GC 1995 (TEM-10) = conditions: Escherichia coli, β-lactamase class A (ESBL), MHBII, 35° C. 18 hr, read-out: Minimal Inhibitory Concentration
Outline: (§1)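 Susceptibility determined by the NCCLS-recommended microbroth dilution method, using Mueller-Hinton II broth with 18-22 hours incubation at 35 C in ambient air.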

E. coli GC 2009 (TEM-10) = conditions: Escherichia coli, 18 h, read-out: Minimal Inhibitory Concentration
Outline: as §1

[1] = test system: E. aerogenes 1697-MP GC 7845 AmpC; conditions: Klebsiella aerogenes; E. aerogenes GC 7845; β-lactamase class C; MHBII, 35° C. 18 hr; read-out: Minimal Inhibitory Concentration
Outline: as §1

[2] = test system: P. aeruginosa GC 1763 AmpC-inducible; conditions: Pseudomonas aeruginosa, β-lactamase class C, MHBII, 35° C. 18 hr, read-out: Minimal Inhibitory Concentration
Outline: as §1

[3] = test system: E. cloacae GC 1477 (AmpC); conditions: Enterobacter cloacae, β-lactamase class C, MHBII, 35° C. 18 hr, read-out: Minimal Inhibitory Concentration
Outline: as §1

[4] = test system: K. pn GC 6651 (TEM-1 + SHV-1 + SHV-5); conditions: Klebsiella pneumoniae, β-lactamase class A, A (ESBL), MHBII, 35° C. 18 hr, read-out: Minimal Inhibitory Concentration
Outline: as §1

[5] = test system: E. coli GC 2146 (TEM-1; SHV-7); conditions: Escherichia coli, β-lactamase class A, A (ESBL), MHBII, 35° C. 18 hr, read-out: Minimal Inhibitory Concentration
Outline: as §1

[6] = test system: P. aeruginosa PT 9236 PTZ-R; conditions: Pseudomonas aeruginosa, PT9236PTZR; P. aeruginosa PT 9236, piperacillin-tazobactam-resistant; MHBII, 35° C. 18 hr; read-out: Minimal Inhibitory Concentration
Outline: as §1

[7] = test system: S. marcescens GC 4145 Inducible AmpC; conditions: Serratia marcescens, β-lactamase class C, MHBII, 35° C. 18 hr, read-out: Minimal Inhibitory Concentration
Outline: as §1

E. coli GC 2847 (TEM-1) = conditions: Escherichia coli, β-lactamase class A, MHBII, 35° C. 18 hr, read-out: Minimal Inhibitory Concentration
Outline: as §1

[8] = test system: K. pn GC 1963 (TEM-10 + SHV-1 + SHV-ESBL); conditions: Klebsiella pneumoniae, β-lactamase class A, MHBII, 35° C. 18 hr, read-out: Minimal Inhibitory Concentration
Outline: as §1

K. pn GC 1832 (SHV-4) = conditions: Klebsiella pneumoniae, β-lactamase class A (ESBL), MHBII, 35° C. 18 hr, read-out: Minimal Inhibitory Concentration
Outline: as §1

E. coli ATCC 35218 TEM-1 = conditions: Escherichia coli, ATCC35218, 18 h, read-out: Minimal Inhibitory Concentration
Outline: as §1

[9] = test system: K. pn GC 3057 (CAZ-R; P/T-R); conditions: Klebsiella pneumoniae, β-lactamase class A, A (ESBL), MHBII, 35° C. 18 hr, read-out: Minimal Inhibitory Concentration
Outline: as §1

[10] = test system: P. aeruginosa PT 8503 PTZ-R; conditions: Pseudomonas aeruginosa, PT8503PTZR; P. aeruginosa PT 8503, piperacillin-tazobactam-resistant; MHBII, 35° C. 18 hr; read-out: Minimal Inhibitory Concentration
Outline: as §1

E. coli GC 2844 (none) = conditions: Escherichia coli, β-lactamase class none, MHBII, 35° C. 18 hr, read-out: Minimal Inhibitory Concentration
Outline: as §1

[11] = test system: E. cloacae GC 4142 (AmpC); conditions: Enterobacter cloacae
Outline: as §1

[12] = test system: S. marcescens GC 4132 (AmpC); conditions: Serratia marcescens, β-lactamase class C, MHBII, 35° C. 18 hr, read-out: Minimal Inhibitory Concentration
Outline: as §1

[13] = test system: K. pneumoniae GC 7820 Act 1; conditions: Klebsiella pneumoniae, GC7820ACT1, β-lactamase class C, MHBII, 35° C. 18 hr, read-out: Minimal Inhibitory Concentration
Outline: as §1

[14] = test system: S. typhimurium GC 4197 CTX-M-5; conditions: Salmonella enterica, β-lactamase class A (ESBL), MHBII, 35° C. 18 hr, read-out: Minimal Inhibitory Concentration
Outline: as §1

K. pn GC 6639 (SHV-13) = conditions: Klebsiella pneumoniae, β-lactamase class A (ESBL), MHBII, 35° C. 18 hr, read-out: Minimal Inhibitory Concentration
Outline: as §1

[15] = test system: K. pneumoniae GC 7632 TEM-1 KPC-2, SHV-7, SHV-12; conditions: Klebsiella pneumoniae, β-lactamase class A, A (Cb'ase), A (ESBL), MHBII, 35° C. 18 hr, read-out: Minimal Inhibitory Concentration
Outline: as §1

[16] = test system: K. pneumoniae GC 2825 Act 1 + 3 additional; conditions: Klebsiella pneumoniae, β-lactamase class A, A (ESBL), C, MHBII, 35° C. 18 hr, read-out: Minimal Inhibitory Concentration
Outline: as §1

CO/N=C(\C(=O)N[C@@H]1C(=O)N2C(C(=O)[O-])=C(C[N+]3(C)CCCC3)CS[C@H]12)c1csc(N)n1 [Cefepime]
MIC (E. coli GC 1995 (TEM-10)): > 16 µg/mL | MIC (E. coli GC 2009 (TEM-10)): > 16 µg/mL | MIC [1]: 0.5 µg/mL (≈ 1.04 µM) | MIC [2]: 2 µg/mL (≈ 4.16 µM) | MIC [3]: 4 µg/mL (≈ 8.32 µM) | MIC [4]: 2 µg/mL (≈ 4.16 µM) | MIC [5]: > 16 µg/mL | MIC [6]: > 16 µg/mL | MIC [7]: 1 µg/mL (≈ 2.08 µM) | MIC (E. coli GC 2847 (TEM-1)): 0.12 µg/mL (≈ 0.25 µM) | MIC [8]: > 16 µg/mL | MIC (K. pn GC 1832 (SHV-4)): 2 µg/mL (≈ 4.16 µM) | MIC (E. coli ATCC 35218 TEM-1): 0.03 µg/mL (≈ 0.0624 µM) | MIC [9]: 16 µg/mL (≈ 33.3 µM) | MIC [10]: 8 µg/mL | MIC (E. coli GC 2844 (none)): 0.06 µg/mL (≈ 0.125 µM) | MIC ([11]; E. cloacae GC 4142, β-lactamase class C, MHBII, 35° C. 18 hr, read-out: Minimal Inhibitory Concentration): 8 µg/mL (≈ 16.6 µM) | MIC ([11]; Table 3, E. cloacae GC4142 AmpC, read-out: MIC* (minimum inhibitory concentration)): 16 µg/mL (≈ 33.3 µM) | MIC [12]: 0.5 µg/mL (≈ 1.04 µM) | MIC [13]: 0.5 µg/mL (≈ 1.04 µM) | MIC [14]: > 16 µg/mL | MIC (K. pn GC 6639 (SHV-13)): 8 µg/mL (≈ 16.6 µM) | MIC [15]: > 16 µg/mL | MIC [16]: 2 µg/mL (≈ 4.16 µM)
